Each structure is given as a SMILES string. pEC50: −log10 of the molar value.

This experiment has as its system hMPV A2 TN/94-49. Kind of experiment: HMPV antiviral assay Method 2 (LLC-MK2 cells with CP-100-356, ATP-Lite). The experiment is classed as cell-based. Particulars: hMPV A2 TN/94-49, LLC-MK2 cells, 4 μM CP-100-356, Method 2. How it is done:
In vitro HMPV antiviral activity was evaluated using the clinical isolate A2 strain TN 94-49 (obtained from Dr. John Williams, Vanderbilt University, Tennessee) and LLC-MK2 cells (Millipore Sigma CB_85062804), an immortalized kidney epithelial cell line from Macaca mulatta. Compounds were resuspended in dimethyl sulfoxide (DMSO) at 10 mM, serially diluted and added to a 384-well source plate. Subsequently, the compounds were diluted and transferred onto 384-well assay plates using the Echo-650 automated liquid handling system (Beckman Coulter, Indiana). The test compounds were assessed in duplicate at a top concentration of 200 nM followed by 2.5-fold serial dilutions to give a total of 10 concentration points. DMSO control wells were also included on the assay plates and were either infected or not, acting as positive and negative controls. A2 TN 94-49 virus infections were performed in-suspension with LLC-MK2 cells. The cells were washed twice with PBS and removed from the cell-culture flask with 0.25% trypsin-EDTA (Thermo Fisher Scientific, MA). The trypsin-EDTA was inactivated by resuspending in 2% fetal bovine serum (FBS) and OptiMEM (ThermoFisher Scientific, MA) containing 1% antibiotic-antimycotic. Cells were pelleted by centrifuging for 5 minutes at 800 rpm, the supernatant was removed, and cells were re-suspended and washed in PBS plus 100 μg/mL CaCl2). This step was performed twice. Cells were then re-suspended in serum-free (SF)-OptiMEM containing 4 μg/mL TPCK-Trypsin (Sigma Aldrich, MO), 1% antibiotic-antimycotic (ThermoFisher Scientific, MA), 100 μg/mL CaCl2), and 4 μM of CP-100-356, a P-glycoprotein inhibitor. Cells were counted and seeded at a density of 5,000 cells/well, 12.5 μL/well. Virus infections were done at a multiplicity of infection (MOI) of 0.16 with 12.5 μL added per well. Virus infections were performed in infection media which contained SF-OptiMEM, 100 μg/mL CaCl2) and 1% antibiotic-antimycotic. HMPV viral stocks are suspended in infection media+5% glycerol, thus an equal volume of infection media+5% glycerol was added to uninfected wells to equalize the final % glycerol across all wells of the assay plate. The final concentration of TPCK-trypsin was 2 μg/mL. The final concentration of CP-100-356 was 2 μM. The assay plates were incubated at 37° C., 5% CO2 for 7 days. After 7 days incubation, 12.5 μL of ATP-Lite (PerkinElmer, MA) was added to each well and the raw luminescence values were determined using the Envision 2104 (Perkin Elmer, MA). The average of the raw luminescence values for the cells and virus only positive control wells was subtracted from all conditions tested and the percent cell health was determined by dividing these values by the average of the cells only negative control wells. EC50 values were then calculated by non-linear regression using a four-parameter curve logistic equation. The curve fit model employed was XLFit Dose Response One Site Model 200: y=(A+(B/(1+((x/C)^D)))), where A is the minimum y value, B is the maximum y value, C is the log EC50value, and D is the slope factor.

For the molecule `C[C@]1(C(N)=O)COc2c1cc([C@@](O)(CNC(=O)c1cc(OC(F)F)c3ncc(Cl)cc3c1)c1ccccc1)nc2-c1cc(Cl)c(F)cc1F` [Example 231], the pEC50 is > 6.70.
The same measure for `C[C@]1(C(N)=O)COc2c1cc([C@@](O)(CNC(=O)c1ccc3nc(C(F)F)oc3c1)c1ccccc1)nc2-c1cc(Cl)c(F)cc1F` [Example 222]: < 6.70.
Next, `COc1cc(C(=O)NC[C@@](O)(c2cccc(C(C)O)c2)c2cc3c(c(-c4cccc(Cl)c4Cl)n2)OC[C@]3(C)C(N)=O)cc2cn(C3CC3)nc12` (stereo partly shown) [Example 495]: < 6.70; `C[C@]1(C(N)=O)COc2c1cc([C@@](O)(CNC(=O)c1ccc3nc(C4CCC4)oc3c1)c1ccccc1)nc2-c1cc(Cl)c(F)cc1F` [Example 221]: < 6.70; `C[C@]1(C(N)=O)COc2c1cc([C@@](O)(CNC(=O)c1cc(C(F)(F)F)c3nn(C4CC4)cc3c1)c1ccccc1)nc2-c1cc(Cl)c(F)cc1F` [Example 228]: > 6.70.
In the case of `COc1cc(C(=O)NC[C@@](O)(c2ccccc2)c2cc3c(c(-c4cc(C(F)(F)F)ccc4F)n2)OC[C@]3(C)C(N)=O)cc2oc(C3CC3)nc12` [Example 332], the pEC50 is > 6.70.
The same measure for `COc1cc(C(=O)NC[C@@](O)(c2ccnc(F)c2)c2cc3c(c(-c4cccc(Cl)c4Cl)n2)OC[C@]3(C)C(N)=O)cc2cn(C3CC3)nc12` [Example 492]: > 6.70; for `COc1cc(C(=O)NC[C@@](O)(c2ccccc2)c2cc3c(c(-c4ccc5c(c4)OC(F)(F)O5)n2)OC[C@]3(C)C(N)=O)cc2oc(C3CC3)nc12` [Example 200]: > 6.70; for `C[C@]1(C(N)=O)COc2c1cc([C@@](O)(CNC(=O)c1cc(Cl)c3nc(C4CC4)oc3c1)c1ccccc1)nc2-c1cc(Cl)c(F)cc1F` [Example 232]: > 6.70.
`COc1cc(C(=O)NC[C@@](O)(c2cncnc2)c2cc3c(c(-c4cc(Cl)c(F)cc4F)n2)OC[C@]3(C)C(N)=O)cc2cn(C3CC3)nc12` [Example 479]: the pEC50 is > 6.70.
The same measure for `Cc1nc2c(OC3CC3)cc(C(=O)NC[C@@](O)(c3ccccc3)c3cc4c(c(-c5cc(Cl)c(F)cc5F)n3)OC[C@]4(C)C(N)=O)cc2s1` [Example 189]: > 6.70; for `CC(C)c1nc2ccc(C(=O)NC[C@@](O)(c3ccccc3)c3cc4c(c(-c5cc(Cl)c(F)cc5F)n3)OC[C@]4(C)C(N)=O)cc2o1` [Example 224]: < 6.70; for `COc1cc([C@](O)(CNC(=O)c2cc(OC)c3nn(C4CC4)cc3c2)c2cc3c(c(-c4cc(Cl)c(F)cc4F)n2)OC[C@]3(C)C(N)=O)cc(F)n1` [Example 503]: > 6.70.
The same measure for `Cc1cc(C(=O)NC[C@@](O)(c2ccccc2)c2cc3c(c(-c4cc(Cl)c(F)cc4F)n2)OC[C@]3(C)C(N)=O)cc2cn[nH]c12` [Example 118]: > 6.70.
Turning to `COc1cc(C(=O)NCC(O)(c2cccc(F)c2)c2cc3c(c(-c4cccc(Cl)c4C#N)n2)OC[C@]3(C)C(N)=O)cc2cn(C3(F)CC3)nc12` (stereo partly shown) [Example 399], the pEC50 is < 6.70.
Next, `COc1cc(C(=O)NC[C@](O)(c2cc3c(c(-c4cc(Cl)c(F)cc4F)n2)OC[C@]3(C)C(N)=O)c2ccnn2C)cc2cn(C3CC3)nc12` [Example 481]: > 6.70; `COc1cc(C(=O)NC[C@](O)(c2cc3c(c(-c4cc(Cl)c(F)cc4F)n2)OC[C@]3(C)C(N)=O)c2ccn(C)n2)cc2cn(C3CC3)nc12` [Example 480]: > 6.70.
On to `C[C@]1(C(N)=O)COc2c1cc([C@@](O)(CNC(=O)c1ccc3nc(C4CC4)oc3c1)c1cccc(F)c1)nc2-c1ccc(F)c(Cl)c1Cl` [Example 312], for which the pEC50 is > 6.70.
As for `C[C@]1(C(N)=O)COc2c1cc([C@@](O)(CNC(=O)c1cc(OC3CC3)n3nc(C4CC4)cc3c1)c1ccccc1)nc2-c1cc(Cl)c(F)cc1F` [Example 191], the pEC50 was > 6.70.
The same measure for `COc1cc(C(=O)NC[C@@](O)(c2ccccc2)c2cc3c(c(-c4ccc5c(c4)OC(F)(F)O5)n2)OC[C@]3(C)C(N)=O)cc2cc(Cl)cnc12` [Example 202]: > 6.70; for `C[C@]1(C(N)=O)COc2c1cc([C@@](O)(CNC(=O)c1ccc3nc(-c4ccc5nc(C(F)F)oc5c4)oc3c1)c1ccccc1)nc2-c1cc(Cl)c(F)cc1F` [Example 223]: < 6.70; for `COc1cc(C(=O)NC[C@@](O)(c2cccc(F)c2)c2cc3c(c(-c4cccc(Cl)c4Cl)n2)OC[C@]3(C)C(N)=O)cc2cc(Cl)cnc12` [Example 333]: > 6.70.
Next, `C[C@]1(C(N)=O)COc2c1cc([C@@](O)(CNC(=O)c1cc(OC3CC3)c3ncc(Cl)cc3c1)c1ccccc1)nc2-c1cc(C(F)(F)F)c(F)cc1F` [Example 315]: > 6.70; `Cc1nc2c(OC3CC3)cc(C(=O)NC[C@@](O)(c3ccccc3)c3cc4c(c(-c5cc(Cl)c(F)cc5F)n3)OC[C@]4(C)C(N)=O)cc2o1` [Example 234]: > 6.70; `CNc1cc([C@](O)(CNC(=O)c2cc(OC)c3nn(C4CC4)cc3c2)c2cc3c(c(-c4cc(Cl)c(F)cc4F)n2)OC[C@]3(C)C(N)=O)ccn1` [Example 490]: > 6.70.
For `C[C@]1(C(N)=O)COc2c1cc([C@@](O)(CNC(=O)c1cc(Cl)c3nn(C(F)F)cc3c1)c1ccccc1)nc2-c1cc(Cl)c(F)cc1F` [Example 102], the pEC50 was < 6.70.
The same measure for `COc1cc(C(=O)NCC(O)(c2ccc(F)cn2)c2cc3c(c(-c4cc(Cl)c(F)cc4F)n2)OC[C@]3(C)C(N)=O)cc2cn(C3CC3)nc12` (stereo partly shown) [Example 210]: > 6.70.
Regarding `COc1cc([C@](O)(CNC(=O)c2cc(OC)c3nn(C4CC4)cc3c2)c2cc3c(c(-c4cccc(Cl)c4Cl)n2)OC[C@]3(C)C(N)=O)ccn1` [Example 494], the negative logarithm of the EC50 (pEC50) was > 6.70.
Next, `COc1cc(C(=O)NC[C@@](O)(c2cnc(C3CC3)nc2)c2cc3c(c(-c4cc(Cl)c(F)cc4F)n2)OC[C@]3(C)C(N)=O)cc2cn(C3CC3)nc12` [Example 478]: > 6.70.
Next, `C[C@]1(C(N)=O)COc2c1cc([C@@](O)(CNC(=O)c1ccc3nc(Cc4ccccc4)oc3c1)c1ccccc1)nc2-c1cc(Cl)c(F)cc1F` [Example 230]: < 6.70; `COc1cccc(-c2nc([C@@](O)(CNC(=O)c3cc(OC)c4nn(C5(F)CC5)cc4c3)c3ccccc3)cc3c2OC[C@]3(C)C(N)=O)c1Cl` [Example 374]: > 6.70.
Next, `COc1c(F)ccc(-c2nc([C@@](O)(CNC(=O)c3cc(OC)c4nn(C5(F)CC5)cc4c3)c3ccccc3)cc3c2OC[C@]3(C)C(N)=O)c1Cl` [Example 375]: > 6.70.
For the molecule `COc1cc(C(=O)NC[C@@](O)(c2cnoc2)c2cc3c(c(-c4cc(Cl)c(F)cc4F)n2)OC[C@]3(C)C(N)=O)cc2cn(C3CC3)nc12` [Example 491], the pEC50 is > 6.70.
The same measure for `C[C@]1(C(N)=O)COc2c1cc([C@@](O)(CNC(=O)c1ccc3nc(-c4ccccc4)oc3c1)c1ccccc1)nc2-c1cc(Cl)c(F)cc1F` [Example 227]: < 6.70; for `C[C@]1(C(N)=O)COc2c1cc([C@@](O)(CNC(=O)c1cc(OC3CC3)c3ncc(Cl)cc3c1)c1cccc(F)c1)nc2-c1cccc(Cl)c1Cl` [Example 334]: > 6.70; for `COc1cc(C(=O)NC[C@@](O)(c2ccccc2)c2cc3c(c(-c4cc(Cl)c(F)cc4F)n2)OC[C@]3(C)C(N)=O)cc2c1OCCC2` [Example 93]: < 6.70.
Regarding `C[C@]1(C(N)=O)COc2c1cc([C@@](O)(CNC(=O)c1ccc3nc(C4CC4)oc3c1)c1ccccc1)nc2-c1cc(C(F)F)c(F)cc1F` [Example 311], the pEC50 was > 6.70.
For `C[C@]1(C(N)=O)COc2c1cc([C@@](O)(CNC(=O)c1cc(OC3CC3)c3nc(C4CC4)sc3c1)c1ccccc1)nc2-c1cc(Cl)c(F)cc1F` [Example 190], the pEC50 was < 6.70.
In the case of `C[C@]1(C(N)=O)COc2c1cc([C@@](O)(CNC(=O)c1cc(OC3CC3)n3nc(C4CC4)cc3c1)c1cccc(F)c1)nc2-c1cccc(Cl)c1Cl` [Example 335], the pEC50 is > 6.70.
Turning to `COc1cc(F)c(F)cc1-c1nc([C@@](O)(CNC(=O)c2cc(OC)c3nn(C4(F)CC4)cc3c2)c2ccccc2)cc2c1OC[C@]2(C)C(N)=O` [Example 365], the pEC50 was > 6.70.

By pEC50 is commonly meant the EC50 on a negative log10 scale, so that one unit is a factor of ten. High values mean a small EC50, low ones a large EC50.

The record behind these values is US12358921B2, “Antiviral heterocyclic compounds” (priority 2022, dated 2025).
